Experiment [1] deals with T1, Vitamin D3 receptor (Homo sapiens) (UniProt P11473).
T1 sequence (whole entry): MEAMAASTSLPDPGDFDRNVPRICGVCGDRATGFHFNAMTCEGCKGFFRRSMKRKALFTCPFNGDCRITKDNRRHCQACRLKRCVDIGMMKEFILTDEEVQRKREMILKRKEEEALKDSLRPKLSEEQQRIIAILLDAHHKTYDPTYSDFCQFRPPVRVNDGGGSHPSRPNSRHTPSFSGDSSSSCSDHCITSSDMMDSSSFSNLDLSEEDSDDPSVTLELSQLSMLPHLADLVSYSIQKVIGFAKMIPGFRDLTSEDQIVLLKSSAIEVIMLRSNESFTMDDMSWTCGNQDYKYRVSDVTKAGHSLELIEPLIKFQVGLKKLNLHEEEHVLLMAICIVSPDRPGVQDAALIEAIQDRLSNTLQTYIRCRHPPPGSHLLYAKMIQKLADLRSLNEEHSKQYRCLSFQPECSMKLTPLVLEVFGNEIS
As to conditions: HOS.
Description: Agonist activity at human VDR expressed in human HOS cells co-transfected with RXR gene assessed as osteocalcin promoter gene transactivation after 24 hrs by luciferase assay

Experiment [2] concerns the target T2, Vitamin D3 receptor (Gallus gallus) (UniProt O42392).
T2 sequence (whole entry): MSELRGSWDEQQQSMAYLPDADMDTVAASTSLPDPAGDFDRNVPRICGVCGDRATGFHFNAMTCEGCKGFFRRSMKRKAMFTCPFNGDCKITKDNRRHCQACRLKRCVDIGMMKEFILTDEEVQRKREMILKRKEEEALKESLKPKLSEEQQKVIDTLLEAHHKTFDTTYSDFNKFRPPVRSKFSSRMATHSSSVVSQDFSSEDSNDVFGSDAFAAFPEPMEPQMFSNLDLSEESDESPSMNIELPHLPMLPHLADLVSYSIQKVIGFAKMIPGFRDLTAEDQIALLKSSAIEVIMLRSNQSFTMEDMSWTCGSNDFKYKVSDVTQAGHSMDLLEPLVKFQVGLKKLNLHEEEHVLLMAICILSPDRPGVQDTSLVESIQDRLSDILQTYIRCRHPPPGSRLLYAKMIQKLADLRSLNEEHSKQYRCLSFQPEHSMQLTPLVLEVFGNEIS
The experiment can be described thus: Displacement of [26,27-methyl-3H]1alpha,25-dihydroxyvitamin D3 from chick intestinal VDR after 1 hr by liquid scintillation counting.

Calls of active or inactive are those of the source. No cut-off for these calls is given here.

With `CC1=C(/C=C\C2=CCC[C@@]3(C)[C@@H]2CC[C@@H]3[C@H](C)CCCC(C)(C)O)C[C@@H](O)C[C@@H]1O`, the ED50 in experiment [1] (tested as the 2H-labelled form) came to 0.46 nM. Moreover, the “relative binding affinity (RBA)” value in experiment [2] (tested as the 2H-labelled form) was “Active”.
`CC1=C(/C=C\C2=CCC[C@@]3(C)[C@@H]2CC[C@@H]3[C@H](C)CCCC(C)(C)O)C[C@@H](O)[C@H](c2ccccc2)[C@@H]1O`: the ED50 in experiment [1] was 0.88 nM. For the same compound, the “relative binding affinity (RBA)” value in experiment [2] was “Active”.
For `CC1=C(/C=C\C2=CCC[C@@]3(C)[C@@H]2CC[C@@H]3[C@H](C)CCCC(C)(C)O)C[C@@H](O)[C@H](OCCCO)[C@@H]1O`, in that order: 0.95 nM and “Active”.
In the same order, the values of `CC1=C(/C=C\C2=CCC[C@@]3(C)[C@@H]2CC[C@@H]3[C@H](C)CCCC(C)(C)O)C[C@@H](O)[C@H](C)[C@@H]1O` are 0.12 nM and “Active”.
In the same order, the values of `CC1=C(/C=C\C2=CCC[C@@]3(C)[C@@H]2CC[C@@H]3[C@H](C)CCCC(C)(C)O)C[C@@H](O)[C@H](CCCO)[C@@H]1O` are 0.69 nM and “Active”.
`CCCC[C@H]1[C@H](O)CC(/C=C\C2=CCC[C@@]3(C)[C@@H]2CC[C@@H]3[C@H](C)CCCC(C)(C)O)=C(C)[C@H]1O` had an ED50 in experiment [1] of 5.77 nM. For the same compound, the “relative binding affinity (RBA)” value in experiment [2] is “Active”.
For `CC1=C(/C=C\C2=CCC[C@@]3(C)[C@@H]2CC[C@@H]3[C@H](C)CCCC(C)(C)O)C[C@@H](O)[C@H](Cc2ccccc2)[C@@H]1O`, in that order: 30.2 nM and “Active”.

Values taken from ChEMBL document CHEMBL1156000, “Synthesis of 2alpha-substituted-14-epi-previtamin D3 and its genomic activity” (Bioorg Med Chem Lett, 2009).
